In PMC6321124, “Hydrophilic Linear Peptide with Histidine and Lysine Residues as a Key Factor Affecting Antifungal Activity” (International Journal of Molecular Sciences, 2018):
In brackets after ≈: the same amount, converted by molar mass. Residues, ends and D or L forms follow the SMILES beside them.

Legend:
C. albicans (KCTC 7270) = settings: KCTC 7270, 48 h, pH 6
[1] = test system: Aspergillus flavus (KCTC 6905); settings: KCTC 6905, 48 h, pH 6
[2] = test system: F. moniliforme (KCTC 6149); settings: KCTC 6149, 48 h, pH 6
[3] = test system: C. albicans (CCARM 14007, amphotericin B-resistant strain); settings: CCARM 14007, 48 h, pH 6
F. solani (KCTC 6326) = settings: KCTC 6326, 48 h, pH 6
C. krusei (CCARM 14017) = settings: CCARM 14017, 48 h, pH 6
[4] = test system: C. parapsilosis (CCARM 14016); settings: CCARM 14016, 48 h, pH 6
[5] = test system: C. albicans (CCARM 14004, fluconazole-resistant strain); settings: CCARM 14004, 48 h, pH 6
[6] = test system: Trichoderma viride (KCTC 16992); settings: KCTC 16992, 48 h, pH 6
[7] = test system: C. albicans (CCARM 14001, fluconazole-resistant strain); settings: CCARM 14001, 48 h, pH 6
[8] = test system: Trichoderma virens (KCTC 16924); settings: KCTC 16924, 48 h, pH 6
[9] = test system: C. gloeosporioides (KCTC 6169); settings: KCTC 6169, 48 h, pH 6
[10] = test system: F. oxysporum (KCTC 16909); settings: KCTC 16909, 48 h, pH 6
[11] = test system: F. graminearum (KCTC 16656); settings: KCTC 16656, 48 h, pH 6
[12] = test system: Tricophyton rubrum (KCTC 6345); settings: KCTC 6345, 48 h, pH 6
[13] = test system: C. albicans (CCARM 14020, fluconazole-resistant strain); settings: CCARM 14020, 48 h, pH 6
C. albicans cells [14] = assay: Intracellular ROS (DCFH-DA, flow cytometry); assay type: cell-based; settings: peptides at MICs or 10 mM H2O2 for 6 h, DCFH-DA 20 min
Protocol: DCF fluorescence was measured using 5000 events/sample following excitation with a 488-nm wavelength laser and reading through a 525/40 biopass filter using a CytoFLEX flow cytometer.

[15] = Calcein leakage, artificial mammalian model membrane; settings: PC/Ch/SM (1:1:1) LUVs, 10 μM lipids
Protocol: The dried lipids were prehydrated with dye buffer solution (80 mM calcein, 10 mM MES, 50 mM NaCl, pH 6.2), vortexed for 1 min, and incubated for 30 min at 50 °C. The suspension was freeze-thawed in liquid nitrogen for nine cycles to generate large unilamellar vesicles (LUVs) and extruded 30 times through polycarbonate filters (two stacked 0.2-μm pore-size filters) using an Avanti Mini-Extruder (Avanti Polar Lipids Inc., Alabaster, AL, USA). Calcein-entrapped vesicles were separated from free calcein by gel filtration chromatography on a Sephadex G-50 column. Entrapped LUVs in suspensions containing 10 μM lipids were incubated with various concentrations of the peptide. The fluorescence of the released calcein was assessed with a microtiter SpectraMax M5 reader at an excitation wavelength of 480 nm and an emission wavelength of 520 nm. Complete (100%) release was achieved via the addition of Triton X-100 to a final concentration of 0.1% (v/v). The apparent percentage of calcein release was calculated in accordance with the following equation: Release (%) = 100 × (F − F0)/(Ft − F0) (2) where F and Ft represent the fluorescence intensity after the addition of the peptides and Triton X-100, respectively, and F0 represents the fluorescence of the intact vesicles.

HaCaT cells = assay: Cytotoxicity (MTT assay); assay type: cell-based; settings: at 3.13 µM, 24 h
C. albicans cells [16] = assay: SYTOX Green uptake (flow cytometry); assay type: cell-based; settings: peptides at MICs for 30 min, 0.5 μM SYTOX Green pre-incubated 15 min
Protocol: C. albicans cells were pre-incubated with 0.5 μM SYTOX Green for 15 min in the dark, incubated with the indicated peptides at MICs for 30 min, and then analyzed using a CytoFLEX flow cytometer (Beckman Coulter Inc., Brea, CA, USA).

C. albicans = settings: peptides at MICs for 6 h, measured at 550 nm

Row | Molecule | MIC (C. albicans (KCTC 7270)) [µM] | MIC [1] [µM] | MIC [2] [µM] | MIC [3] [µM] | MIC (F. solani (KCTC 6326)) [µM] | MIC (C. krusei (CCARM 14017)) [µM] | MIC [4] [µM] | MIC [5] [µM] | MIC [6] [µM] | MIC [7] [µM] | MIC [8] [µM] | MIC [9] [µM] | MIC [10] [µM] | MIC [11] [µM] | MIC [12] [µM] | MIC [13] [µM] | also measured
1 | NCCCC[C@H](NC(=O)[C@H](CCCCN)NC(=O)[C@@H](N)Cc1c[nH]cn1)C(N)=O [(HKK)1] (H-His-Lys-Lys-NH2) | 1024 (≈ 420 µg/mL) | 256 (≈ 105 µg/mL) | 256 (≈ 105 µg/mL) | 1024 (≈ 420 µg/mL) | 256 (≈ 105 µg/mL) | 512 (≈ 210 µg/mL) | 1024 (≈ 420 µg/mL) | 1024 (≈ 420 µg/mL) | 256 (≈ 105 µg/mL) | 1024 (≈ 420 µg/mL) | 512 (≈ 210 µg/mL) | 1024 (≈ 420 µg/mL) | 256 (≈ 105 µg/mL) | 512 (≈ 210 µg/mL) | 512 (≈ 210 µg/mL) | 1024 (≈ 420 µg/mL) | –
2 | NCCCC[C@H](NC(=O)[C@H](CCCCN)NC(=O)[C@H](Cc1c[nH]cn1)NC(=O)[C@H](CCCCN)NC(=O)[C@H](CCCCN)NC(=O)[C@@H](N)Cc1c[nH]cn1)C(N)=O [(HKK)2] (H-HKKHKK-NH2) | 64 (≈ 51.5 µg/mL) | 64 (≈ 51.5 µg/mL) | 32 (≈ 25.7 µg/mL) | 64 (≈ 51.5 µg/mL) | 32 (≈ 25.7 µg/mL) | 64 (≈ 51.5 µg/mL) | 64 (≈ 51.5 µg/mL) | 64 (≈ 51.5 µg/mL) | 64 (≈ 51.5 µg/mL) | 64 (≈ 51.5 µg/mL) | 32 (≈ 25.7 µg/mL) | 16 (≈ 12.9 µg/mL) | 64 (≈ 51.5 µg/mL) | 64 (≈ 51.5 µg/mL) | 64 (≈ 51.5 µg/mL) | 64 (≈ 51.5 µg/mL) | –
3 | NCCCC[C@H](NC(=O)[C@H](CCCCN)NC(=O)[C@H](Cc1c[nH]cn1)NC(=O)[C@H](CCCCN)NC(=O)[C@H](CCCCN)NC(=O)[C@H](Cc1c[nH]cn1)NC(=O)[C@H](CCCCN)NC(=O)[C@H](CCCCN)NC(=O)[C@@H](N)Cc1c[nH]cn1)C(N)=O [(HKK)3] (H-HKKHKKHKK-NH2) | 64 (≈ 76.6 µg/mL) | 16 (≈ 19.2 µg/mL) | 16 (≈ 19.2 µg/mL) | 64 (≈ 76.6 µg/mL) | 16 (≈ 19.2 µg/mL) | 16 (≈ 19.2 µg/mL) | 32 (≈ 38.3 µg/mL) | 64 (≈ 76.6 µg/mL) | 16 (≈ 19.2 µg/mL) | 64 (≈ 76.6 µg/mL) | 16 (≈ 19.2 µg/mL) | 8 (≈ 9.58 µg/mL) | 32 (≈ 38.3 µg/mL) | 32 (≈ 38.3 µg/mL) | 32 (≈ 38.3 µg/mL) | 64 (≈ 76.6 µg/mL) | –
4 | NCCCC[C@H](NC(=O)[C@H](CCCCN)NC(=O)[C@H](Cc1c[nH]cn1)NC(=O)[C@H](CCCCN)NC(=O)[C@H](CCCCN)NC(=O)[C@H](Cc1c[nH]cn1)NC(=O)[C@H](CCCCN)NC(=O)[C@H](CCCCN)NC(=O)[C@H](Cc1c[nH]cn1)NC(=O)[C@H](CCCCN)NC(=O)[C@H](CCCCN)NC(=O)[C@@H](N)Cc1c[nH]cn1)C(N)=O [(HKK)4] (H-HKKHKKHKKHKK-NH2) | 32 (≈ 50.9 µg/mL) | 8 (≈ 12.7 µg/mL) | 4 (≈ 6.36 µg/mL) | 32 (≈ 50.9 µg/mL) | 4 (≈ 6.36 µg/mL) | 4 (≈ 6.36 µg/mL) | 32 (≈ 50.9 µg/mL) | 32 (≈ 50.9 µg/mL) | 4 (≈ 6.36 µg/mL) | 32 (≈ 50.9 µg/mL) | 16 (≈ 25.5 µg/mL) | 2 (≈ 3.18 µg/mL) | 4 (≈ 6.36 µg/mL) | 16 (≈ 25.5 µg/mL) | 16 (≈ 25.5 µg/mL) | 32 (≈ 50.9 µg/mL) | –
5 | NCCCC[C@H](NC(=O)[C@H](CCCCN)NC(=O)[C@H](Cc1c[nH]cn1)NC(=O)[C@H](CCCCN)NC(=O)[C@H](CCCCN)NC(=O)[C@H](Cc1c[nH]cn1)NC(=O)[C@H](CCCCN)NC(=O)[C@H](CCCCN)NC(=O)[C@H](Cc1c[nH]cn1)NC(=O)[C@H](CCCCN)NC(=O)[C@H](CCCCN)NC(=O)[C@H](Cc1c[nH]cn1)NC(=O)[C@H](CCCCN)NC(=O)[C@H](CCCCN)NC(=O)[C@H](Cc1c[nH]cn1)NC(=O)[C@H](CCCCN)NC(=O)[C@H](CCCCN)NC(=O)[C@@H](N)Cc1c[nH]cn1)C(N)=O [(HKK)6] (H-HKKHKKHKKHKKHKKHKK-NH2) | 16 (≈ 38 µg/mL) | 4 (≈ 9.51 µg/mL) | 2 (≈ 4.76 µg/mL) | 16 (≈ 38 µg/mL) | 2 (≈ 4.76 µg/mL) | 4 (≈ 9.51 µg/mL) | 16 (≈ 38 µg/mL) | 16 (≈ 38 µg/mL) | 2 (≈ 4.76 µg/mL) | 16 (≈ 38 µg/mL) | 8 (≈ 19 µg/mL) | 1 (≈ 2.38 µg/mL) | 2 (≈ 4.76 µg/mL) | 8 (≈ 19 µg/mL) | 8 (≈ 19 µg/mL) | 16 (≈ 38 µg/mL) | –
6 | NCCCC[C@H](NC(=O)[C@H](CCCCN)NC(=O)[C@H](Cc1c[nH]cn1)NC(=O)[C@H](CCCCN)NC(=O)[C@H](CCCCN)NC(=O)[C@H](Cc1c[nH]cn1)NC(=O)[C@H](CCCCN)NC(=O)[C@H](CCCCN)NC(=O)[C@H](Cc1c[nH]cn1)NC(=O)[C@H](CCCCN)NC(=O)[C@H](CCCCN)NC(=O)[C@H](Cc1c[nH]cn1)NC(=O)[C@H](CCCCN)NC(=O)[C@H](CCCCN)NC(=O)[C@H](Cc1c[nH]cn1)NC(=O)[C@H](CCCCN)NC(=O)[C@H](CCCCN)NC(=O)[C@H](Cc1c[nH]cn1)NC(=O)[C@H](CCCCN)NC(=O)[C@H](CCCCN)NC(=O)[C@H](Cc1c[nH]cn1)NC(=O)[C@H](CCCCN)NC(=O)[C@H](CCCCN)NC(=O)[C@@H](N)Cc1c[nH]cn1)C(N)=O [(HKK)8] (H-HKKHKKHKKHKKHKKHKKHKKHKK-NH2) | 8 (≈ 25.3 µg/mL) | 2 (≈ 6.33 µg/mL) | 2 (≈ 6.33 µg/mL) | 8 (≈ 25.3 µg/mL) | 1 (≈ 3.16 µg/mL) | 4 (≈ 12.7 µg/mL) | 8 (≈ 25.3 µg/mL) | 8 (≈ 25.3 µg/mL) | 1 (≈ 3.16 µg/mL) | 8 (≈ 25.3 µg/mL) | 4 (≈ 12.7 µg/mL) | 1 (≈ 3.16 µg/mL) | 2 (≈ 6.33 µg/mL) | 4 (≈ 12.7 µg/mL) | 2 (≈ 6.33 µg/mL) | 8 (≈ 25.3 µg/mL) | –
7 | OO [H2O2] | – | – | – | – | – | – | – | – | – | – | – | – | – | – | – | – | intracellular ROS generation (C. albicans cells [14]): high levels of ROS generation
8 | CC[C@H](C)[C@H](NC(=O)CN)C(=O)NCC(=O)N[C@@H](C)C(=O)N[C@H](C(=O)N[C@@H](CC(C)C)C(=O)N[C@@H](CCCCN)C(=O)N[C@H](C(=O)N[C@@H](CC(C)C)C(=O)N[C@H](C(=O)N[C@H](C(=O)NCC(=O)N[C@@H](CC(C)C)C(=O)N1CCC[C@H]1C(=O)N[C@@H](C)C(=O)N[C@@H](CC(C)C)C(=O)N[C@H](C(=O)N[C@@H](CO)C(=O)N[C@@H](Cc1c[nH]c2ccccc12)C(=O)N[C@H](C(=O)N[C@@H](CCCCN)C(=O)N[C@@H](CCCNC(=N)N)C(=O)N[C@@H](CCCCN)C(=O)N[C@@H](CCCNC(=N)N)C(=O)N[C@@H](CCC(N)=O)C(=O)N[C@@H](CCC(N)=O)C(N)=O)[C@@H](C)CC)[C@@H](C)CC)[C@@H](C)O)[C@@H](C)O)C(C)C)C(C)C [Melittin, melittin, reference compound] | 8 (≈ 22.8 µg/mL) | 8 (≈ 22.8 µg/mL) | 8 (≈ 22.8 µg/mL) | 8 (≈ 22.8 µg/mL) | 8 (≈ 22.8 µg/mL) | 8 (≈ 22.8 µg/mL) | 8 (≈ 22.8 µg/mL) | 8 (≈ 22.8 µg/mL) | 4 (≈ 11.4 µg/mL) | 8 (≈ 22.8 µg/mL) | 32 (≈ 91.1 µg/mL) | 16 (≈ 45.5 µg/mL) | 8 (≈ 22.8 µg/mL) | 8 (≈ 22.8 µg/mL) | 8 (≈ 22.8 µg/mL) | 8 (≈ 22.8 µg/mL) | calcein leakage from mammalian artificial liposomes (in words) [15]: concentration-dependent calcein leakage; cell death (HaCaT cells): 100%
9 | histatin 5 | – | – | – | – | – | – | – | – | – | – | – | – | – | – | – | – | SYTOX Green uptake (membrane permeabilization) (C. albicans cells [16]): did not induce membrane damage; relative cytochrome c levels in the cytosol (C. albicans): only minor alterations
